The source of these data is PubChem BioAssay AID256 (DTP/NCI, 2004).

For the assay, the system named is CD2F1 mice, L1210 leukemia ip, survival T/C. As to the kind of experiment: NCI In Vivo Anticancer Drug Screen. Data for tumor model L1210 Leukemia (intraperitoneal) in CD2F1 (CDF1) mice. The following applies: endpoint: mean survival time, higher = longer survival. The method in brief:
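Transplantable tumor in mice; compound-treated vs vehicle-treated groups. Read-out = treated/control ratio of the measured endpoint.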

The mark [1] stands for this setting: dose: 100.0 mg/kg/injection, schedule: Q01DX001 (ip), vehicle: saline with Tween-80.
Where [2] appears, read: dose: 200.0 mg/kg/injection, schedule: Q01DX001 (ip), vehicle: saline with Tween-80.
Setting [3] is: dose: 400.0 mg/kg/injection, schedule: Q01DX001 (ip), vehicle: saline with Tween-80.

“And” between values parts separate entries of the source, which are not always exact repeats. Equal values may be shown once. Inconclusive results and toxic doses are left out.

Take `N=[N+]=CC(=O)CCC(NC(=O)C(CCC(=O)C=[N+]=N)NC(=O)CCC(N)C(=O)O)C(=O)O` (stereo not drawn): the T/C by setting is: (dose: 0.01 mg/kg/injection, schedule: Q01DX009 (ip), vehicle: water) 95 % of control; (dose: 0.03 mg/kg/injection, schedule: Q01DX009 (ip), vehicle: water) 96 % of control; (dose: 0.05 mg/kg/injection, schedule: Q01DX009 (ip), vehicle: other) 115 % of control and 112 % of control; (dose: 0.05 mg/kg/injection, schedule: Q01DX009 (ip), vehicle: water) 115 % of control; (dose: 0.05 mg/kg/injection, schedule: Q01DX009 (oral), vehicle: water) 103 % of control; (dose: 0.05 mg/kg/injection, schedule: Q01DX009 (sc), vehicle: water) 116 % of control. The T/C is 152 % of control (dose: 0.1 mg/kg/injection, schedule: Q01DX009 (ip), vehicle: other); 107 % of control (dose: 0.1 mg/kg/injection, schedule: Q01DX009 (oral), vehicle: water); 157 % of control (dose: 0.18 mg/kg/injection, schedule: Q01DX017 (ip), vehicle: saline); 120 % of control (dose: 0.2 mg/kg/injection, schedule: Q01DX009 (oral), vehicle: water); 101 % of control (dose: 0.2 mg/kg/injection, schedule: Q01DX009 (sc), vehicle: water); 111 % of control (dose: 0.3 mg/kg/injection, schedule: Q01DX017 (ip), vehicle: saline). Moreover, the T/C was 90 % of control (dose: 0.4 mg/kg/injection, schedule: Q01DX009 (oral), vehicle: water); 98 % of control (dose: 0.4 mg/kg/injection, schedule: Q01DX009 (sc), vehicle: water); 116 % of control and 96 % of control and 97 % of control (dose: 0.5 mg/kg/injection, schedule: Q01DX009 (ip), vehicle: other); 112 % of control (dose: 0.5 mg/kg/injection, schedule: Q01DX017 (ip), vehicle: saline); 87 % of control (dose: 1.0 mg/kg/injection, schedule: Q01DX009 (ip), vehicle: other); 100 % of control (dose: 1.6 mg/kg/injection, schedule: Q03HX024 (ip), vehicle: water). The T/C reads like this: (dose: 3.1 mg/kg/injection, schedule: Q03HX008 (ip), vehicle: water) 110 % of control; (dose: 3.1 mg/kg/injection, schedule: Q03HX024 (ip), vehicle: water) 87 % of control; (dose: 6.25 mg/kg/injection, schedule: Q04DX003 (ip), vehicle: water) 155 % of control; (dose: 7.5 mg/kg/injection, schedule: Q04DX003 (ip), vehicle: other) 162 % of control and 165 % of control and 168 % of control; (dose: 12.5 mg/kg/injection, schedule: Q04DX003 (ip), vehicle: water) 160 % of control; (dose: 15.0 mg/kg/injection, schedule: Q04DX003 (ip), vehicle: other) 168 % of control and 177 % of control and 191 % of control. In addition, the T/C was 178 % of control (dose: 25.0 mg/kg/injection, schedule: Q04DX003 (ip), vehicle: water); 169 % of control (dose: 25.0 mg/kg/injection, schedule: Q08DX002 (ip), vehicle: water); 178 % of control and 190 % of control and 191 % of control (dose: 30.0 mg/kg/injection, schedule: Q04DX003 (ip), vehicle: other); 165 % of control (dose: 50.0 mg/kg/injection, schedule: Q08DX002 (ip), vehicle: water); 155 % of control and 196 % of control and 203 % of control (dose: 60.0 mg/kg/injection, schedule: Q04DX003 (ip), vehicle: other); 124 % of control (dose: 100.0 mg/kg/injection, schedule: Q01DX001 (oral), vehicle: water). In addition, the T/C was 96 % of control (dose: 100.0 mg/kg/injection, schedule: Q01DX001 (sc), vehicle: water); 109 % of control (dose: 100.0 mg/kg/injection, schedule: Q04DX003 (ip), vehicle: water); 158 % of control (dose: 100.0 mg/kg/injection, schedule: Q08DX002 (ip), vehicle: water); 118 % of control (dose: 200.0 mg/kg/injection, schedule: Q01DX001 (ip), vehicle: water); 121 % of control (dose: 200.0 mg/kg/injection, schedule: Q01DX001 (oral), vehicle: water); 92 % of control (dose: 400.0 mg/kg/injection, schedule: Q01DX001 (ip), vehicle: water).

In the case of `CCOC(=O)C(C(=S)NC)=S(C)C`, the T/C (dose: 100.0 mg/kg/injection, schedule: Q01DX001 (ip), vehicle: other) was 92 % of control; the T/C (dose: 200.0 mg/kg/injection, schedule: Q01DX001 (ip), vehicle: other) is 88 % of control; the T/C (dose: 400.0 mg/kg/injection, schedule: Q01DX001 (ip), vehicle: other) was 105 % of control.

In the case of `BrCN(CBr)c1ccc2c(c1)Cc1cc(Br)ccc1-2`, the T/C is, setting by setting: (dose: 100.0 mg/kg/injection, schedule: Q04DX003 (ip), vehicle: saline) 100 % of control; (dose: 200.0 mg/kg/injection, schedule: Q04DX003 (ip), vehicle: saline) 101 % of control; (dose: 400.0 mg/kg/injection, schedule: Q04DX003 (ip), vehicle: saline) 103 % of control.

Regarding `ClC1(Cl)C2COCOCC21` (stereo not drawn), the T/C under setting [1] is 91 % of control, the T/C under setting [2] is 91 % of control and the T/C under setting [3] is 95 % of control.

`N#CC(/C=C/c1ccccc1)NCC(O)c1ccccc1` (stereo not drawn): the T/C was 97 % of control under setting [1], 101 % of control under setting [2] and 93 % of control under setting [3].
